# Data: patent US20250188030A1, “Biphenyl and Phenylpyridine Compounds” (Pfizer Inc., priority 2023, published 2025)
# Target: KAT2A (Homo sapiens (Human), UniProt Q92830)
# Experiment: KAT2A acetyltransferase biochemical assay (RapidFire mass spectrometry, AcCoA to CoA)
# Conditions: KAT2A Ki at 1 μM AcCoA, 5 μM H3 1-21 peptide, 0.5 nM KAT2A, 90-minute reaction
# Method: • A) Compound preparation • 1) Prepare 10 mM stock solutions in 100% DMSO from solid material. • 2) Serial dilute 10 mM, 1 mM, 0.1 or 0.01 mM compound stocks 3-fold in 100% DMSO for 11-point dose response. • B) Reagent preparation • 1) Prepare 1×assay buffer containing 40 mM bis tris propane pH 8.0, 10 mM NaCl, 0.5 mM EDTA, and 0.002% Tween-20. • 2) Dilute Histone peptide (CPC Scientific) and KAT enzyme together in assay buffer to 1.25×. • 3) Dilute AcCoA (Sigma) in assay buffer to 5×. • C) Enzyme reaction • 1) Final reaction conditions for each KAT assay in a 100ul assay reaction volume: • i) KAT2A 0.5 nM, 1 uM AcCoA, 5 uM H3 1-21 peptide, 90-minute reaction • ii) KAT2B 0.5 nM, 1 uM AcCoA, 5 uM H3 1-21 peptide, 90-minute reaction • 2) Add 2 ul of diluted compound series to the assay plate (96-well round-bottom polypropylene plates) or 2 ul of DMSO for control wells. • 3) Add 11 μL of 10% formic acid to 100% effect (HPE) control wells. • 4) Add 80 ul of 1.25× Histone peptide/KAT mix to the assay plate via Multidrop Combi (ThermoFisher). Incubate 15 min at room temperature. • 5) Add 20 ul of 5× AcCoA to the assay plate via Multidrop Combi. • 6) Stop the reaction after the indicated time with the addition of 11 ul of 10% formic acid via Multidrop Combi. • 7) Each reaction was analyzed using Rapid Fire mass spectrometry platform.
# KAT enzymes were expressed using a baculovirus expression system and purified at Pfizer, La Jolla. […] Acetyl coenzyme A was purchased from Sigma-Aldrich (St. Louis, MO). All other biochemical reagents were purchased from Sigma-Aldrich or ThermoFisher Scientific (Waltham, MA).
# KAT assays were performed at room temperature in assay buffer containing 1 μM AcCoA, 5 μM histone peptide, 40 mM bis tris propane pH 8.0, 10 mM NaCl, 0.5 mM EDTA 0.002% Tween-20. 80 ul of 1.25× Histone peptide/enzyme mix was added to a 96-well round-bottom polypropylene assay plate containing 2 ul of serially diluted test compound in 100% dimethyl sulfoxide (DMSO). To start the reaction, 20 ul of 5× AcCoA solution was added to the assay plate. KAT assays were terminated after 90 minutes with the addition of 11 ul of 10% formic acid. All assays used histone H3 (1-21) peptide. The final enzyme concentration for each KAT was as follows: KAT2A, 0.5 nM; KAT2B, 0.5 nM. […] Each reaction was analyzed using Rapid Fire mass spectrometry platform. This methodology leverages an Agilent 6495 triple quadrupole (QQQ) mass spectrometer coupled to a RapidFire model 365 to specifically capture and measure KAT2 acetyltransferase activity, converting AcCoA (substrate) to CoA (product).
# Area under the curve (AUC) for both substrate and product peaks was determined for KAT2 at M.W. 809.6 [Substrate+H]+ and 767.3 [Product+H]+ with a +/−1 Da tolerance, respectively. Acetyltransferase activity (% of DMSO control) was calculated by: ((AUCProduct/AUCsubstrate)-AUCHPE)/(AUCZPE-AUCHPE))*100. Ki values were determined by fitting the % acetyltransferase activity at each inhibitor concentration to the Morrison equation for tightbinding competitive inhibitors using Pfizer proprietary curve fitting software.
# To determine the inhibition of KAT enzymatic activity by test compounds, assay reactions were conducted in a volume of 100 μL in 96-well round-bottom polypropylene assay plate. The reactions were performed in assay buffer (40 mM bis tris propane, pH 8, 10 mM NaCl, 0.5 mM EDTA, 0.002% Tween-20).
# Sequence of KAT2A (Q92830 whole entry): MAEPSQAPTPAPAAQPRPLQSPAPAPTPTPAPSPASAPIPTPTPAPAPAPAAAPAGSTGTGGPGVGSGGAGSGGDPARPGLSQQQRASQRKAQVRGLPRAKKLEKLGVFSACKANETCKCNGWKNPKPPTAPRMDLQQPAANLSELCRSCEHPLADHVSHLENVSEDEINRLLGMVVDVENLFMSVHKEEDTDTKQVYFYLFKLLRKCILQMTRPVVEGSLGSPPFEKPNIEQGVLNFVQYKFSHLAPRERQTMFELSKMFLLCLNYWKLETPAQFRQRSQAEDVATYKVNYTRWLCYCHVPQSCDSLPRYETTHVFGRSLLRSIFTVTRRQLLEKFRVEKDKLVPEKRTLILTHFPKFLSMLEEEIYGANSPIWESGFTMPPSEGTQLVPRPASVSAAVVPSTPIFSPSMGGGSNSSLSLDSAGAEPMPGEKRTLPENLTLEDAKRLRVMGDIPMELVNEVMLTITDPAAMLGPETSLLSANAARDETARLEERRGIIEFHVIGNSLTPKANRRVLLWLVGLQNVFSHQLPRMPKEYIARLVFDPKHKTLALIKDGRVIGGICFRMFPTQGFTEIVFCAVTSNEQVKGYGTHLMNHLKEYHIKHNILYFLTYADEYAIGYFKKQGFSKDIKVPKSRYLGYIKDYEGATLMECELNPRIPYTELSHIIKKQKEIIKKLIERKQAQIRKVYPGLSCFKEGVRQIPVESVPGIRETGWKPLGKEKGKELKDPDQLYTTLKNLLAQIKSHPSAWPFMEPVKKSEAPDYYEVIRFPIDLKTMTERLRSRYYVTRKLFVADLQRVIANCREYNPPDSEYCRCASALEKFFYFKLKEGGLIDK
row,Ki [nM],SMILES
1,660,"CS(=O)(=O)NC(=O)Cc1ccc(O[C@@H]2CC[C@@H](NC(=O)C3(F)CNC4(CCCC4)C3)C2)c(-c2cccc(F)c2C2CCC2)c1 (single isomer, unassigned) [Example B15]"
2,236,"CC(C)S(=O)(=O)NC(=O)C(C)(C)c1ccc(O[C@@H]2CC[C@@H](NC(=O)[C@@]3(F)CNC4(CCC4)C3)C2)c(-c2cccc(F)c2C2CCC2)c1 (single isomer, unassigned) [Example B3]"
3,2750,"CC(C)(C(=O)O)c1ccc(O[C@@H]2CC[C@@H](NC(=O)[C@]3(F)CNC4(CCC4)C3)C2)c(-c2cccc(F)c2C2CCC2)c1 [Example A2, 2-(2′-cyclobutyl-3′-fluoro-6-{[(1R,3R)-3-({[(7R)-7-fluoro-5-azaspiro[3.4]oct-7-yl]carbonyl}amino)cyclopentyl]oxy}biphenyl-3-yl)-2-methylpropanoic acid]"

# Same assay, conditions: read-out: KAT2A Ki at 1 μM AcCoA, 5 μM H3 1-21 peptide, 0.5 nM KAT2A, 90-minute reaction
row,Ki [nM],SMILES
1,238,"O=C(Cc1ccc(O[C@@H]2CC[C@@H](NC(=O)[C@@]3(F)CNC4(CCC4)C3)C2)c(-c2cccc(F)c2C2CCC2)c1)NS(=O)(=O)C1CC1 (single isomer, unassigned) [Example C30]"
2,517,"CC(C)(C(=O)NS(=O)(=O)C1CC1)c1ccc(O[C@@H]2CC[C@@H](NC(=O)[C@]3(F)CNC4(CCC4)C3)C2)c(-c2cccc(F)c2C2CCC2)c1 (single isomer, unassigned) [Example B11]"
3,72.8,"CC(C)(C(=O)NS(=O)(=O)C1CC1)c1ccc(O[C@@H]2CC[C@@H](NC(=O)[C@@]3(F)CNC4(CCCC4)C3)C2)c(-c2cccc(F)c2C2CCC2)c1 (single isomer, unassigned) [Example B25]"
4,> 99.9,"CCc1c(F)cccc1-c1cc([C@@H](C)C(=O)NS(=O)(=O)C2(C)CC2)ccc1O[C@@H]1CC[C@@H](NC(=O)[C@@]2(F)CNC3(CCCC3)C2)C1 (single isomer, unassigned) [Example C86]"
5,9040,"CC(C)c1ccccc1-c1c(CC(=O)O)cccc1O[C@@H]1CC[C@@H](NC(=O)[C@@H]2CC(C)(C)CN2C)C1 (atropisomer, axis not shown) [Example H5, [(1ψ)-2′-(propan-2-yl)-6-({(1R,3R)-3-[(1,4,4-trimethyl-L-prolyl)amino]cyclopentyl}oxy)[1,1′-biphenyl]-2-yl]acetic acid]"
6,284,"CCn1cc(-c2ccc(O[C@@H]3CC[C@@H](NC(=O)[C@@]4(F)CNC5(CCC5)C4)C3)c(-c3cccc(F)c3C3CCC3)c2)c(C(=O)O)n1 (single isomer, unassigned) [Example J14]"
7,926,"CN1CC2(CCCC2)C[C@H]1C(=O)N[C@@H]1CC[C@@H](Oc2ccc(C(=O)O)cc2-c2ccccc2C2CCC2)C1 (single isomer, unassigned) [Example D8]"
8,221,"CC(C)S(=O)(=O)NC(=O)C(C)(C)c1ccc(O[C@@H]2CC[C@@H](NC(=O)[C@@]3(F)CNCC(C)(C)C3)C2)c(-c2cccc(F)c2C2CCC2)c1 (single isomer, unassigned) [Example B29]"
9,> 99.9,"CC(C)c1c(F)cccc1-c1cc(C(C)(C)C(=O)NS(=O)(=O)C2(C)CC2)ccc1O[C@@H]1CC[C@@H](NC(=O)[C@@]2(F)CNC3(CCC3)C2)C1 (single isomer, unassigned) [Example C42]"
10,27.6,"CC(C)(C(=O)NS(=O)(=O)C1(C)CC1)c1ccc(O[C@@H]2CC[C@@H](NC(=O)[C@@]3(F)CNC4(CCC4)C3)C2)c(-c2cccc(F)c2C2CCC2)c1 (single isomer, unassigned) [Example B33]"
11,1360,"CN1CC2(CCCC2)C[C@@H]1C(=O)N[C@@H]1CC[C@@H](Oc2cccc(C(=O)NS(C)(=O)=O)c2-c2cccc(F)c2C2CCC2)C1 (atropisomer, axis not shown) [Example I8, (3ξ)-N-[(1R,3R)-3-({(1ψ)-2′-cyclobutyl-3′-fluoro-6-[(methanesulfonyl)carbamoyl][1,1′-biphenyl]-2-yl}oxy)cyclopentyl]-2-methyl-2-azaspiro[4.4]nonane-3-carboxamide]"
12,321,"CC1(C)CNC[C@](F)(C(=O)N[C@@H]2CC[C@@H](Oc3ccc(C(C)(C)C(=O)NS(=O)(=O)C4(C)CC4)cc3-c3cccc(F)c3C3CCC3)C2)C1 (single isomer, unassigned) [Example C34]"
13,15.4,"CC1(C)CNC[C@](F)(C(=O)N[C@@H]2CC[C@@H](Oc3ccc(CC(=O)O)cc3-c3cccc(F)c3C3CCC3)C2)C1 (single isomer, unassigned) [Example A24]"
14,13.2,"CC1(S(=O)(=O)NC(=O)Cc2ccc(O[C@@H]3CC[C@@H](NC(=O)[C@@]4(F)CNC5(CCCC5)C4)C3)c(-c3cccc(F)c3C3CCC3)c2)CC1 (single isomer, unassigned) [Example C68]"
15,842,"C[C@H](C(=O)O)c1nn(C)cc1-c1ccc(O[C@@H]2CC[C@@H](NC(=O)[C@]3(F)CNC4(CCC4)C3)C2)c(-c2cccc(F)c2C2CCC2)c1 (single isomer, unassigned) [Example J3]"
16,103,"CC1(C)CNC[C@](F)(C(=O)N[C@@H]2CC[C@@H](Oc3ccc(C(C)(C)C(=O)NS(=O)(=O)C4CC4)cc3-c3cccc(F)c3C3CCC3)C2)C1 (single isomer, unassigned) [Example B27]"
17,387,"CN1CC(C)(C)C[C@H]1C(=O)N[C@@H]1CC[C@@H](Oc2cccc(CC(=O)NS(N)(=O)=O)c2-c2ccccc2C2CCC2)C1 (atropisomer, axis not shown) [Example I6, N-[(1R,3R)-3-({(1ψ)-2′-cyclobutyl-6-[2-oxo-2-(sulfamoylamino)ethyl][1,1′-biphenyl]-2-yl}oxy)cyclopentyl]-1,4,4-trimethyl-L-prolinamide]"

row,Ki [nM],SMILES
1,> 1000,"CC(C)S(=O)(=O)NC(=O)C(C)(C)c1ccc(O[C@@H]2CC[C@@H](NC(=O)[C@@]3(F)CNC4(CCCC4)C3)C2)c(-c2cccc(F)c2C2CCC2)c1 (single isomer, unassigned) [Example B23]"
2,11.8,"CCc1c(F)cccc1-c1cc(CC(=O)NS(=O)(=O)C(C)C)ccc1O[C@@H]1CC[C@@H](NC(=O)[C@@]2(F)CNCC(C)(C)C2)C1 (single isomer, unassigned) [Example C66]"
3,411,"CN1CC2(CCCC2)C[C@H]1C(=O)N[C@@H]1CC[C@@H](Oc2cccc(C(=O)NS(C)(=O)=O)c2-c2cccc(F)c2C2CCC2)C1 (atropisomer, axis not shown) [Example I9, (3ξ)-N-[(1R,3R)-3-({(1ψ)-2′-cyclobutyl-3′-fluoro-6-[(methanesulfonyl)carbamoyl][1,1′-biphenyl]-2-yl}oxy)cyclopentyl]-2-methyl-2-azaspiro[4.4]nonane-3-carboxamide]"
4,1100,"CC1(C)C[C@H](C(=O)N[C@@H]2CC[C@@H](Oc3cccc(C(=O)O)c3-c3cccc(F)c3C3CCC3)C2)CN1 (atropisomer, axis not shown) [Example H11, (1ψ)-2′-cyclobutyl-6-{[(1R,3R)-3-{[(3ξ)-5,5-dimethylpyrrolidine-3-carbonyl]amino}cyclopentyl]oxy}-3′-fluoro[1,1′-biphenyl]-2-carboxylic acid]"
5,> 99.9,"CC(C)c1ccccc1-c1cc(CC(=O)NS(=O)(=O)C2(C)CC2)ccc1O[C@@H]1CC[C@@H](NC(=O)[C@@]2(F)CNC3(CCCC3)C2)C1 (single isomer, unassigned) [Example C62]"
6,338,"CCc1c(F)cccc1-c1cc(C(C)(C)C(=O)NS(C)(=O)=O)ccc1O[C@@H]1CC[C@@H](NC(=O)[C@@]2(F)CNC3(CCCC3)C2)C1 (single isomer, unassigned) [Example C26]"
7,34.7,"CCS(=O)(=O)NC(=O)C(C)(C)c1ccc(O[C@@H]2CC[C@@H](NC(=O)[C@@]3(F)CNC4(CCCC4)C3)C2)c(-c2cccc(F)c2C2CCC2)c1 (single isomer, unassigned) [Example B19]"
8,348,"CC1(C)C[C@@H](C(=O)N[C@@H]2CC[C@@H](Oc3cccc(C(=O)O)c3-c3cccc(F)c3C3CCC3)C2)CN1 (atropisomer, axis not shown) [Example H8, (1ψ)-2′-cyclobutyl-6-{[(1R,3R)-3-{[(3ξ)-5,5-dimethylpyrrolidine-3-carbonyl]amino}cyclopentyl]oxy}-3′-fluoro[1,1′-biphenyl]-2-carboxylic acid]"
9,> 99.9,"CCc1c(F)cccc1-c1cc([C@@H](C)C(=O)NS(=O)(=O)C2(C)CC2)ccc1O[C@@H]1CC[C@@H](NC(=O)[C@@]2(F)CNC3(CCCC3)C2)C1 (single isomer, unassigned) [Example C84]"
10,26400,"CC1(C)C[C@@H](C(=O)N[C@@H]2CC[C@@H](Oc3cccc(C(=O)O)c3-c3cccc(F)c3C3CCC3)C2)CN1 (atropisomer, axis not shown) [Example H10]"
11,> 400,"O=C(O)Cc1ccc(O[C@@H]2CC[C@@H](NC(=O)[C@]3(F)CNC4(CCC4)C3)C2)c(-c2cccc(F)c2C2CCC2)c1 (single isomer, unassigned) [Example A8]"
12,209,"CC(C)(C(=O)NS(=O)(=O)N1CC(F)(F)C1)c1ccc(O[C@@H]2CC[C@@H](NC(=O)[C@]3(F)CNC4(CCC4)C3)C2)c(-c2cccc(F)c2C2CCC2)c1 (single isomer, unassigned) [Example B9]"
13,81.7,"CCS(=O)(=O)NC(=O)C(C)(C)c1ccc(O[C@@H]2CC[C@@H](NC(=O)[C@@]3(F)CNCC(C)(C)C3)C2)c(-c2cccc(F)c2C2CCC2)c1 (single isomer, unassigned) [Example B21]"
14,> 1000,"C[C@H](C(=O)O)c1ccc(O[C@@H]2CC[C@@H](NC(=O)[C@@]3(F)CNC4(CCC4)C3)C2)c(-c2cccc(F)c2C2CCC2)c1 (single isomer, unassigned) [Example A17]"
15,> 99.9,"CCS(=O)(=O)NC(=O)Cc1ccc(O[C@@H]2CC[C@@H](NC(=O)[C@@]3(F)CNC4(CCCC4)C3)C2)c(-c2ccccc2C(C)C)c1 (single isomer, unassigned) [Example C64]"
16,751,"C[C@H](C(=O)O)c1ccc(O[C@@H]2CC[C@@H](NC(=O)[C@@]3(F)CNC4(CCC4)C3)C2)c(-c2cccc(F)c2C2CCC2)c1 (single isomer, unassigned) [Example A18]"
17,118,"CC1(C)CNC[C@](F)(C(=O)N[C@@H]2CC[C@@H](Oc3ccc(C(C)(C)C(=O)NS(C)(=O)=O)cc3-c3cccc(F)c3C3CCC3)C2)C1 (single isomer, unassigned) [Example C36]"
